Results from ChEMBL document CHEMBL3632585, “Probing the S2' Subsite of the Anthrax Toxin Lethal Factor Using Novel N-Alkylated Hydroxamates” (J Med Chem, 2015).

How the values were obtained:
Lethal factor [1] = biological target: T1, Lethal factor (Bacillus anthracis, UniProt P15917); test: Inhibition of Bacillus anthracis Lethal factor after 5 mins by FRET assay
T1 sequence (P15917 whole entry): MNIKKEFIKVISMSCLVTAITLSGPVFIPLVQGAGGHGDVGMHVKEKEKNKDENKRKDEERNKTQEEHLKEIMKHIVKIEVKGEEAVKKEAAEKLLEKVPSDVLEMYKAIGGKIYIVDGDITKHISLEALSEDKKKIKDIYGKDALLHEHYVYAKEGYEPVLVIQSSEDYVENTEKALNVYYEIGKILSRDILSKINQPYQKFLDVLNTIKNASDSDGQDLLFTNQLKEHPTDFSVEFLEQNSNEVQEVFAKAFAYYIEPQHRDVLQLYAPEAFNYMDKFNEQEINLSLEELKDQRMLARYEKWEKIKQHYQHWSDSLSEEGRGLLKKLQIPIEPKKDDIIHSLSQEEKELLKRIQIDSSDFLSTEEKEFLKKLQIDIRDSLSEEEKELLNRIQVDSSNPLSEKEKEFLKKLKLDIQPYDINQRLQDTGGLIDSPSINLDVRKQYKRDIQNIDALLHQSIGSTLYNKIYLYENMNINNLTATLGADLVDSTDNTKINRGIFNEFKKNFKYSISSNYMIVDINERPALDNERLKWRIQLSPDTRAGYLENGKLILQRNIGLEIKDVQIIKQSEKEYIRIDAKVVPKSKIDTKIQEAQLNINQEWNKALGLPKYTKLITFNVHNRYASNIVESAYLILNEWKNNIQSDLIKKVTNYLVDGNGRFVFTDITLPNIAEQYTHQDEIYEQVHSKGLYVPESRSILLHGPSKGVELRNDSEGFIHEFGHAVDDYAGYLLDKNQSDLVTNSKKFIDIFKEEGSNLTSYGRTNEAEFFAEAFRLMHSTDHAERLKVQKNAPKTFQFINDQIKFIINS

Lethal factor [2] = biological target: T1, Lethal factor; test: Inhibition of Bacillus anthracis Lethal factor after 10 mins by mobility shift protease assay using 8 uM FITC as substrate

| Compound | IC50 (Lethal factor [1]) | IC50 (Lethal factor [2]) |
| --- | --- | --- |
| Cc1cc(S(=O)(=O)N[C@H](C)C(=O)NO)ccc1F | 1.6 µM | 0.5 µM |
| CC(=O)NCc1ccc(CN([C@H](C)C(=O)NO)S(=O)(=O)c2ccc(F)c(C)c2)cc1 | 16 µM | 3.5 µM |
| Cc1cc(S(=O)(=O)N(Cc2ccc(CNC(=O)OC(C)(C)C)cc2)[C@H](C)C(=O)NO)ccc1F | 15 µM | 3.4 µM |
| Cc1cc(S(=O)(=O)N(CCOCc2ccccc2)[C@H](C)C(=O)NO)ccc1F | 57 µM | 14 µM |
| CC(=O)NCc1cccc(CN([C@H](C)C(=O)NO)S(=O)(=O)c2ccc(F)c(C)c2)c1 | 15 µM | 4.7 µM |
| Cc1cc(S(=O)(=O)N(Cc2ccccc2F)[C@H](C)C(=O)NO)ccc1F | 33 µM | 9.5 µM |
| Cc1cc(S(=O)(=O)N(C(C)C)[C@H](C)C(=O)NO)ccc1F | > 100 µM | > 100 µM |
| CC(=O)Nc1cccc(CN([C@H](C)C(=O)NO)S(=O)(=O)c2ccc(F)c(C)c2)c1 | 21 µM | 4.8 µM |
| Cc1cc(S(=O)(=O)N(Cc2ccc(CN)cc2)[C@H](C)C(=O)NO)ccc1F | 5.6 µM | 1.3 µM |
| Cc1cc(S(=O)(=O)N(CCCCCCCC(=O)OC(C)(C)C)[C@H](C)C(=O)NO)ccc1F | 8 µM | 3.2 µM |
| Cc1cc(S(=O)(=O)N(Cc2cc(F)cc(F)c2)[C@H](C)C(=O)NO)ccc1F | 26 µM | 7 µM |
| CC(=O)NCCCN([C@H](C)C(=O)NO)S(=O)(=O)c1ccc(F)c(C)c1 | 117 µM | 30 µM |
| Cc1cc(S(=O)(=O)N(Cc2ccc(CCNC(=O)OC(C)(C)C)cc2)[C@H](C)C(=O)NO)ccc1F | 6.9 µM | 2.1 µM |
| Cc1cc(S(=O)(=O)N(CCCCCCN)[C@H](C)C(=O)NO)ccc1F | 4.4 µM | 1.1 µM |
| CC(=O)NCCc1ccc(CN([C@H](C)C(=O)NO)S(=O)(=O)c2ccc(F)c(C)c2)cc1 | 17 µM | 3.2 µM |
| Cc1cc(S(=O)(=O)N(CCCN)[C@H](C)C(=O)NO)ccc1F | 12 µM | 3.7 µM |
| Cc1cc(S(=O)(=O)N(Cc2c(F)cccc2F)[C@H](C)C(=O)NO)ccc1F | 42 µM | 13 µM |
| CC(=O)NCCCCCCN([C@H](C)C(=O)NO)S(=O)(=O)c1ccc(F)c(C)c1 | 14 µM | 3.9 µM |
| Cc1cc(S(=O)(=O)N(Cc2ccc(F)cc2)[C@H](C)C(=O)NO)ccc1F | 29 µM | 11 µM |
| Cc1cc(S(=O)(=O)N(C)[C@H](C)C(=O)NO)ccc1F | 37 µM | 9.6 µM |
| Cc1cc(S(=O)(=O)N(CCCCCCCC(=O)O)[C@H](C)C(=O)NO)ccc1F | 91 µM | 47 µM |
| Cc1cc(S(=O)(=O)N(Cc2ccc(N)cc2)[C@H](C)C(=O)NO)ccc1F | 29 µM | 6.4 µM |
| Cc1cc(S(=O)(=O)N(CCCCCN)[C@H](C)C(=O)NO)ccc1F | 8.2 µM | 1.3 µM |
| Cc1cc(S(=O)(=O)N(Cc2cccc(CN)c2)[C@H](C)C(=O)NO)ccc1F | 10 µM | 1.7 µM |
| Cc1cc(S(=O)(=O)N(CCCCN)[C@H](C)C(=O)NO)ccc1F | 7.4 µM | 1.8 µM |
| CC(=O)NCCCCCN([C@H](C)C(=O)NO)S(=O)(=O)c1ccc(F)c(C)c1 | 19 µM | 4.3 µM |
| CNC(=O)CCCCCCCN([C@H](C)C(=O)NO)S(=O)(=O)c1ccc(F)c(C)c1 | 19 µM | 9.3 µM |
| Cc1cc(S(=O)(=O)N(Cc2ccc(CCN)cc2)[C@H](C)C(=O)NO)ccc1F | 8.9 µM | 1.2 µM |
